One molecule from the NIST ThermoML archive (doi:10.1016/j.jct.2013.08.029) can be followed below.

This data set can be described thus: xn = mol fraction of the nth substance listed. As to conditions: 101 kPa, Liquid, Vibrating tube method, x2 = 0.5.

SMILES strings stand for the structures. Numbers after ± are expanded uncertainties.

On to `O=C(O)CC(=O)O` [propanedioic acid] + C[N+](C)(C)CCO.[Cl-], for which the mass density came out at 1189.9 ± 0.6 kg/m3 (303.15 K); 1187.3 ± 0.6 kg/m3 (308.15 K); 1184.7 ± 0.6 kg/m3 (313.15 K); 1182.1 ± 0.6 kg/m3 (318.15 K); 1179.7 ± 0.6 kg/m3 (323.15 K).

For orientation: mass density means mass per unit of volume.
